In ChEMBL document CHEMBL4411274, “Recent advances of tetrazole derivatives as potential anti-tubercular and anti-malarial agents” (Eur J Med Chem, 2019):
In brackets after ≈: the same amount, converted by molar mass.

Legend:
[1] = tested on: Mycobacterium tuberculosis; assay: Antibacterial activity against Mycobacterium tuberculosis H37Rv; assay type: functional
[2] = tested on: Mycobacterium tuberculosis; assay: Antibacterial activity against Mycobacterium tuberculosis H37Rv after 5 days; assay type: functional; conditions: 120 h
Plasmodium falciparum [3] = assay: Antimalarial activity against ring-stage multidrug-resistant Plasmodium falciparum Dd2 preincubated for 6 hrs followed by compound wash and measured after 66 hrs by Giemsa-staining based light microscopic analysis; assay type: functional, organism-based
Plasmodium falciparum [4] = assay: Antimalarial activity against ring-stage chloroquine-susceptible Plasmodium falciparum 3D7 preincubated for 6 hrs followed by compound wash and measured after 66 hrs by Giemsa-staining based light microscopic analysis; assay type: functional, organism-based
Mycobacterium kansasii [5] = assay: Antibacterial activity against Mycobacterium kansasii isolate 6509/96; assay type: functional
[6] = tested on: Mycobacterium tuberculosis; assay: Antibacterial activity against Mycobacterium tuberculosis H37Rv by resazurin dye-based assay; assay type: functional
[7] = tested on: Mycobacterium tuberculosis; assay: Antibacterial activity against Mycobacterium tuberculosis CNCTC My 331/88; assay type: functional
Plasmodium falciparum [8] = assay: Antimalarial activity against chloroquine resistant Plasmodium falciparum FcB1R; assay type: functional, organism-based
Mycobacterium kansasii [9] = assay: Antibacterial activity against Mycobacterium kansasii CNCTC My 235/80; assay type: functional
Mycobacterium kansasii [10] = assay: Potency index, ratio of isoniazid MIC to compound MIC for Mycobacterium kansasii CNCTC My 235/80; assay type: functional
Mycobacterium avium [11] = assay: Antibacterial activity against Mycobacterium avium CNCTC My 330/88; assay type: functional
Mycobacterium avium [12] = assay: Potency index, ratio of isoniazid MIC to compound MIC for Mycobacterium avium CNCTC My 330/88; assay type: functional
[13] = tested on: Mycobacterium tuberculosis; assay: Antibacterial activity against Mycobacterium tuberculosis H37Rv by MABA; assay type: functional

Cc1ccc(-n2c(-c3cc4cc(Cl)ccc4n4nnnc34)nc(-c3ccccc3)c2-c2ccccc2)cc1
MIC [1]: 25 mg/L (≈ 48.7 µM)

Cn1nnnc1SC1=CS(=O)(=O)c2ccccc21
MIC [2]: 2.6 µM (≈ 0.729 µg/mL)

c1cnc(-c2nn3nnnc3o2)cn1
MIC [1]: 50 mg/L (≈ 264 µM)

Cc1ccc2c(c1)cc(C1C3=C(CC(C)(C)CC3=O)N(c3ccc(F)cc3)C3=C1C(=O)CC(C)(C)C3)c1nnnn12
MIC [1]: 50 mg/L (≈ 91 µM)

c1ccc(-n2nnnc2OCC2CCC3(CC2)OOC2(O3)C3CC4CC(C3)CC2C4)cc1 (configuration not stated)
IC50 (Plasmodium falciparum [3]): 2.1 to 24.4 nM | IC50 (Plasmodium falciparum [4]): 2.1 to 24.4 nM

NNC(=O)c1ccncc1 [ISONIAZID]
MIC (Mycobacterium kansasii [5]): 4 mg/L (≈ 29.2 µM) | MIC [6]: 0.063 mg/L (≈ 0.459 µM) | MIC [7]: 0.5 mg/L (≈ 3.65 µM) | MIC [1]: 0.2 mg/L (≈ 1.46 µM)

Cn1nnc(NCC2CCC3(CC2)OOC2(O3)C3CC4CC(C3)CC2C4)n1 (configuration not stated)
IC50 (Plasmodium falciparum [3]): 2.1 nM | IC50 (Plasmodium falciparum [4]): 2.9 nM

CO[C@H]1/C=C/O[C@@]2(C)Oc3c(C)c(O)c4c(O)c(c(/C=N/N5CCN(C)CC5)c(O)c4c3C2=O)NC(=O)/C(C)=C\C=C\[C@H](C)[C@H](O)[C@@H](C)[C@@H](O)[C@@H](C)[C@H](OC(C)=O)[C@@H]1C [RIFAMPIN]
MIC [6]: 0.006 mg/L (≈ 0.00729 µM) | MIC [1]: 0.25 to 40 mg/L (≈ 0.304 to 48.6 µM)

C1C2CC3CC1CC(C2)C31OOC2(CCC(Nc3nnn[nH]3)CC2)O1 (configuration not stated)
IC50 (Plasmodium falciparum [3]): 2.5 nM | IC50 (Plasmodium falciparum [4]): 2.8 nM

CC1=C(CCc2nnnn2CCCCC#N)C(=O)c2ccccc2C1=O
IC50 (Plasmodium falciparum [8]): 900 to 1400 nM

C1C2CC3CC1CC(C2)C31OOC2(CCC(Nc3nnn[nH]3)CC2)OO1 (configuration not stated)
IC50 (Plasmodium falciparum [3]): 43.5 nM | IC50 (Plasmodium falciparum [4]): 63 nM

C[C@@H]1CC[C@H]2[C@@H](C)C(=O)O[C@@H]3O[C@@]4(C)CC[C@@H]1[C@]32OO4 [ARTEMISININ]
IC50 (Plasmodium falciparum [3]): 2.5 nM | IC50 (Plasmodium falciparum [4]): 4 nM

Clc1ccc(-n2nnnc2SCc2ccccc2)cc1Cl
MIC (Mycobacterium kansasii [5]): 8 to 62.5 mg/L (≈ 23.7 to 185 µM) | MIC (Mycobacterium kansasii [9]): 8 to 250 mg/L (≈ 23.7 to 741 µM) | Ratio (Mycobacterium kansasii [10]): >4 | MIC (Mycobacterium avium [11]): 8 to 250 mg/L (≈ 23.7 to 741 µM) | MIC [7]: 8 to 62.5 mg/L (≈ 23.7 to 185 µM) | Ratio (Mycobacterium avium [12]): >4

CC1=C(CCc2nnnn2CCCC#N)C(=O)c2ccccc2C1=O
IC50 (Plasmodium falciparum [8]): 900 to 1400 nM

CC1=C(CCc2nnnn2CCCCCC#N)C(=O)c2ccccc2C1=O
IC50 (Plasmodium falciparum [8]): 900 to 1400 nM

CC[C@@H](CO)NCCN[C@@H](CC)CO [ETHAMBUTOL]
MIC [13]: 1.56 mg/L (≈ 7.64 µM) | MIC [1]: 2 mg/L (≈ 9.79 µM)

CN[C@@H]1[C@H](O[C@H]2[C@H](O[C@H]3[C@H](O)[C@@H](O)[C@H](N=C(N)N)[C@@H](O)[C@@H]3N=C(N)N)O[C@@H](C)[C@]2(O)C=O)O[C@@H](CO)[C@H](O)[C@H]1O [STREPTOMYCIN]
MIC [1]: 4 mg/L (≈ 6.88 µM)
